The test system of one experiment is Phaedon cochleariae. Nature of the experiment: Phaedon cochleariae spray test. The conditions noted are these: 100 g/ha; after 7 days.
In another experiment the test system is Spodoptera frugiperda. Nature of the experiment: Spodoptera frugiperda spray test. The class given is in vivo. The conditions noted are these: after 7 days.
The test system of another experiment is Tetranychus urticae. The experiment is described as follows: Tetranychus urticae spray test, OP-resistant (bean leaf discs). The class given is in vivo. The conditions noted are these: 100 g/ha; after 6 days. On the procedure:
After 6 days, the efficacy in % is determined.

On to `CC(=O)NCc1cc(-c2cn(-c3c(Cl)cc(C(F)(C(F)(F)F)C(F)(F)F)cc3Cl)cn2)ccc1F` [I-T2-01], for which the efficacy with Phaedon cochleariae is listed as 100%.

For `CCC(=O)NCc1cc(-c2cn(-c3c(Cl)cc(C(F)(C(F)(F)F)C(F)(F)F)cc3Cl)cn2)ccc1F` [I-T2-03], in the experiment with Phaedon cochleariae, the efficacy was found to be 100%.

With `CCC(=O)NCc1cc(-c2cn(-c3c(Cl)cc(C(F)(C(F)(F)F)C(F)(F)F)cc3Cl)nn2)ccc1Cl` [I-T7-02], the efficacy in the experiment on Spodoptera frugiperda (100 g/ha) and in the experiment on Phaedon cochleariae was 100% in each case.

Regarding `O=C(NCc1cc(-c2cn(-c3c(Cl)cc(C(F)(C(F)(F)F)C(F)(F)F)cc3Cl)nn2)ccc1Cl)C1CC1` [I-T7-03], the efficacy in the experiment on Spodoptera frugiperda (100 g/ha) and with Phaedon cochleariae was 100% throughout.

For `CC(=O)NCc1cc(-c2cnn(-c3c(Cl)cc(C(F)(C(F)(F)F)C(F)(F)F)cc3OC(F)(F)F)c2)ccc1F` [Ia-06], the efficacy with Spodoptera frugiperda (100 g/ha) and in the experiment with Phaedon cochleariae was 100% throughout.

In the case of `CC(=O)NCc1cccc(-c2cnn(-c3c(Cl)cc(C(F)(C(F)(F)F)C(F)(F)F)cc3Cl)c2)c1` [Ia-09], the efficacy is 100% with Spodoptera frugiperda (100 g/ha), 100% in the experiment with Phaedon cochleariae and 90% in the experiment on Tetranychus urticae.

Take `O=C(CC(F)(F)F)NCc1cccc(-c2cnn(-c3c(Cl)cc(C(F)(C(F)(F)F)C(F)(F)F)cc3Cl)c2)c1` [Ia-21]: the efficacy with Spodoptera frugiperda (100 g/ha) and in the experiment on Phaedon cochleariae was 100% in each case.

Regarding `CN(Cc1cc(-c2cnn(-c3c(Cl)cc(C(F)(C(F)(F)F)C(F)(F)F)cc3Cl)c2)ccc1Cl)C(=O)C1CC1` [Ia-24], the efficacy in the experiment on Spodoptera frugiperda (100 g/ha) and in the experiment on Phaedon cochleariae was 100% in each case.

As for `CCC(=O)N(C)Cc1cc(-c2cnn(-c3c(Cl)cc(C(F)(C(F)(F)F)C(F)(F)F)cc3OC(F)(F)F)c2)ccc1F` [Ia-27], the efficacy in the experiment with Spodoptera frugiperda (100 g/ha), in the experiment with Phaedon cochleariae and with Tetranychus urticae was 100% in each case.

With `CCC(=O)NCc1cccc(-c2cnn(-c3c(Cl)cc(C(F)(C(F)(F)F)C(F)(F)F)cc3C(F)F)c2)c1` [Ia-39], the efficacy with Spodoptera frugiperda (100 g/ha), in the experiment on Phaedon cochleariae and with Tetranychus urticae was 100% each time.

Consider `C[S+]([O-])c1cc(C(F)(C(F)(F)F)C(F)(F)F)cc(Cl)c1-n1cc(-c2ccc(F)c(CNC(=O)C3CC3)c2)cn1` (stereo not shown) [Ia-43], for which the efficacy amounted to 83% with Spodoptera frugiperda (20 g/ha), 100% with Phaedon cochleariae and 90% in the experiment on Tetranychus urticae.

On to `CS(=O)(=O)c1cc(C(F)(C(F)(F)F)C(F)(F)F)cc(Cl)c1-n1cc(-c2ccc(F)c(CNC(=O)C3CC3)c2)cn1` [Ia-44], for which the efficacy in the experiment on Phaedon cochleariae and in the experiment on Tetranychus urticae was 100% each time.

As to `CC(=O)NC(C)c1cc(-c2cnn(-c3c(Cl)cc(C(F)(C(F)(F)F)C(F)(F)F)cc3Cl)c2)ccc1F` (stereo not shown) [Ia-49], the efficacy with Spodoptera frugiperda (100 g/ha) and in the experiment on Phaedon cochleariae was 100% throughout.

`CCC(=O)NC(C)c1cc(-c2cnn(-c3c(Cl)cc(C(F)(C(F)(F)F)C(F)(F)F)cc3Cl)c2)ccc1F` (stereo not shown) [Ia-50] returned an efficacy in the experiment with Spodoptera frugiperda (100 g/ha) of 100%.

In the experiment on Phaedon cochleariae, `CC(C)(C)C(=O)NCc1cc(-c2cnn(-c3c(Cl)cc(C(F)(C(F)(F)F)C(F)(F)F)cc3C(F)F)c2)ccc1F` [Ia-62] showed an efficacy of 100%.

`Cc1cc(C(F)(C(F)(F)F)C(F)(F)F)cc(Cl)c1-n1cc(-c2cccc(CNC(=O)C3CC3)c2)cn1` [Ia-70] had an efficacy in the experiment on Phaedon cochleariae of 100%.

The molecule `CCC(=O)N(C)Cc1cc(-c2cnn(-c3c(Cl)cc(C(F)(C(F)(F)F)C(F)(F)F)cc3Cl)c2)ccc1C(F)(F)F` [Ia-78] displayed an efficacy in the experiment with Phaedon cochleariae of 100%.

Take `CCC(=O)NCc1cc(-c2cnn(-c3c(Cl)cc(C(F)(C(F)(F)F)C(F)(F)F)cc3Cl)c2)ccc1C` [Ia-81]: the efficacy with Spodoptera frugiperda (100 g/ha) and with Tetranychus urticae was 100% in each case.

Take `CC(=O)N(C)Cc1cc(-c2cnn(-c3c(Cl)cc(C(F)(C(F)(F)F)C(F)(F)F)cc3OC(F)(F)F)c2)ccc1Cl` [Ia-85]: the efficacy in the experiment with Spodoptera frugiperda (100 g/ha), with Phaedon cochleariae and in the experiment on Tetranychus urticae was 100% each time.

For the molecule `CCC(=O)NCc1cc(-c2cnn(-c3c(Cl)cc(C(F)(C(F)(F)F)C(F)(F)F)cc3OC(F)(F)F)c2)ccc1Cl` [Ia-86], the efficacy in the experiment on Spodoptera frugiperda (100 g/ha) and with Phaedon cochleariae was 100% throughout.

As to `CCC(=O)N(C)Cc1cc(-c2cnn(-c3c(Cl)cc(C(F)(C(F)(F)F)C(F)(F)F)cc3OC(F)(F)F)c2)ccc1Cl` [Ia-87], the efficacy with Spodoptera frugiperda (100 g/ha), with Phaedon cochleariae and in the experiment on Tetranychus urticae was 100% in each case.

With `CCC(=O)NCc1cc(-c2cnn(-c3c(Cl)cc(C(F)(C(F)(F)F)C(F)(F)F)cc3Br)c2)ccc1Cl` [Ia-89], the efficacy amounted to 100% with Spodoptera frugiperda (100 g/ha), 100% in the experiment on Phaedon cochleariae and 90% in the experiment with Tetranychus urticae.

`CC(=O)NCc1cc(-c2cnn(-c3c(F)cc(C(F)(C(F)(F)F)C(F)(F)F)cc3Br)c2)ccc1Cl` [Ia-92]: the efficacy with Spodoptera frugiperda (100 g/ha), in the experiment on Phaedon cochleariae and with Tetranychus urticae was 100% in each case.

In the case of `CCC(=O)NCc1cc(-c2cnn(-c3c(F)cc(C(F)(C(F)(F)F)C(F)(F)F)cc3Br)c2)ccc1Cl` [Ia-94], the efficacy in the experiment with Spodoptera frugiperda (100 g/ha) and with Phaedon cochleariae was 100% in each case.

Take `CCC(=O)NCc1cccc(-c2cnn(-c3c(Cl)cc(C(F)(C(F)(F)F)C(F)(F)F)cc3C#N)c2)c1` [Ia-97]: the efficacy with Phaedon cochleariae was 100%.

`CC(=O)N(C)Cc1cc(-c2cnn(-c3c(Cl)cc(C(F)(C(F)(F)F)C(F)(F)F)cc3Br)c2)ccc1Cl` [Ia-99]: the efficacy with Spodoptera frugiperda (100 g/ha), with Phaedon cochleariae and in the experiment on Tetranychus urticae was 100% each time.

Regarding `CC(=O)N(C)Cc1cc(-c2cnn(-c3c(F)cc(C(F)(C(F)(F)F)C(F)(F)F)cc3Br)c2)ccc1Cl` [Ia-100], the efficacy in the experiment with Spodoptera frugiperda (100 g/ha), in the experiment with Phaedon cochleariae and in the experiment on Tetranychus urticae was 100% each time.

Turning to `CCC(=O)NCc1cc(-c2cnn(-c3c(Cl)cc(C(F)(C(F)(F)F)C(F)(F)F)cc3C#N)c2)ccc1C` [Ia-101], the efficacy in the experiment on Spodoptera frugiperda (100 g/ha) and in the experiment with Phaedon cochleariae was 100% throughout.

As for `CCC(=O)NCc1cc(-c2cnn(-c3c(Cl)cc(C(F)(C(F)(F)F)C(F)(F)F)cc3C#N)c2)ccc1F` [Ia-103], the efficacy in the experiment on Spodoptera frugiperda (100 g/ha) and in the experiment with Phaedon cochleariae was 100% each time.

As for `CCN(Cc1cc(-c2cnn(-c3c(Cl)cc(C(F)(C(F)(F)F)C(F)(F)F)cc3Cl)c2)ccc1Cl)C(C)=O` [Ia-109], the efficacy in the experiment on Spodoptera frugiperda (100 g/ha), with Phaedon cochleariae and in the experiment with Tetranychus urticae was 100% in each case.

In the case of `CC(=O)N(C)Cc1cc(-c2cnn(-c3c(Cl)cc(C(F)(C(F)(F)F)C(F)(F)F)cc3Cl)c2)c(F)cc1Cl` [Ia-110], the efficacy in the experiment with Spodoptera frugiperda (100 g/ha) and in the experiment on Phaedon cochleariae was 100% throughout.

As for `CCC(=O)NCc1cc(-c2cnn(-c3c(Cl)cc(C(F)(C(F)(F)F)C(F)(F)F)cc3Cl)c2)c(F)cc1Cl` [Ia-111], the efficacy in the experiment with Spodoptera frugiperda (100 g/ha), in the experiment with Phaedon cochleariae and in the experiment on Tetranychus urticae was 100% throughout.

Turning to `CCCN(Cc1cc(-c2cnn(-c3c(Cl)cc(C(F)(C(F)(F)F)C(F)(F)F)cc3Cl)c2)ccc1Cl)C(C)=O` [Ia-112], the results for the efficacy in the experiment on Spodoptera frugiperda (100 g/ha), in the experiment on Phaedon cochleariae and in the experiment with Tetranychus urticae were 100%, 100% and 90%, respectively.

Regarding `CCC(=O)NCc1cc(-c2cnn(-c3c(Cl)cc(C(F)(C(F)(F)F)C(F)(F)F)cc3C#N)c2)ccc1Cl` [Ia-114], the efficacy in the experiment with Spodoptera frugiperda (100 g/ha) and in the experiment on Phaedon cochleariae was 100% throughout.

As to `O=C(NCc1cc(-c2cnn(-c3c(Cl)cc(C(F)(C(F)(F)F)C(F)(F)F)cc3Cl)c2)ccc1Cl)C(F)F` [Ia-119], the efficacy in the experiment with Spodoptera frugiperda (100 g/ha), in the experiment on Phaedon cochleariae and in the experiment on Tetranychus urticae was 100% in each case.

In the case of `O=C(NCc1cc(-c2cnn(-c3c(Cl)cc(C(F)(C(F)(F)F)C(F)(F)F)cc3Cl)c2)ccc1Cl)C(F)(F)F` [Ia-120], the efficacy in the experiment with Spodoptera frugiperda (100 g/ha), in the experiment with Phaedon cochleariae and in the experiment on Tetranychus urticae was 100% throughout.

Take `CCC(=O)NCc1cc(-c2cnn(-c3c(Cl)cc(C4(C(F)(F)F)CC4)cc3Cl)c2)ccc1F` [Ia-123]: the efficacy stood at 83% in the experiment with Spodoptera frugiperda (100 g/ha) and 100% with Phaedon cochleariae.

`CC(=O)NCc1cc(-c2cnn(-c3c(Cl)cc(C4(C(F)(F)F)CC4)cc3Cl)c2)ccc1F` [Ia-124] came in with an efficacy in the experiment with Phaedon cochleariae of 100%.

For `CC(=O)NCc1cccc(-c2cnn(-c3c(Cl)cc(C(F)(C(F)(F)F)C(F)(F)F)cc3Cl)c2)c1F` [Ia-153], in the experiment on Phaedon cochleariae, the efficacy is 100%.

For the molecule `CCC(=O)NCc1cc(-c2cnn(-c3c(Cl)cc(C(F)(C(F)(F)F)C(F)(F)F)cc3OC(F)F)c2)cnc1Cl` [Ia-160], the efficacy in the experiment with Spodoptera frugiperda (100 g/ha), in the experiment on Phaedon cochleariae and in the experiment with Tetranychus urticae was 100% in each case.

With `CC(=S)N(C)Cc1cc(-c2cnn(-c3c(Cl)cc(C(F)(C(F)(F)F)C(F)(F)F)cc3Cl)c2)ccc1Cl` [Ia-163], the efficacy amounted to 83% in the experiment on Spodoptera frugiperda (100 g/ha), 100% in the experiment with Phaedon cochleariae and 100% in the experiment on Tetranychus urticae.

As to `CC(=O)NCc1cc(-c2cnn(-c3c(Cl)cc(C(F)(C(F)(F)F)C(F)(F)F)cc3Cl)c2)ccc1Br` [Ia-164], the efficacy with Spodoptera frugiperda (100 g/ha), with Phaedon cochleariae and in the experiment on Tetranychus urticae was 100% in each case.

As for `CC(=O)N(C)Cc1cc(-c2cnn(-c3c(Cl)cc(C(F)(C(F)(F)F)C(F)(F)F)cc3Cl)c2)ccc1Br` [Ia-165], the efficacy with Spodoptera frugiperda (100 g/ha) stood at 100%; with Phaedon cochleariae, 100%; in the experiment with Tetranychus urticae, 90%.

On to `CCC(=O)NCc1cc(-c2cnn(-c3c(Cl)cc(C(F)(C(F)(F)F)C(F)(F)F)cc3Cl)c2)ccc1Br` [Ia-166], for which the efficacy in the experiment with Spodoptera frugiperda (100 g/ha), in the experiment on Phaedon cochleariae and in the experiment with Tetranychus urticae was 100% throughout.

Regarding `O=S(=O)(NCc1cc(-c2cnn(-c3c(Cl)cc(C(F)(C(F)(F)F)C(F)(F)F)cc3Cl)c2)ccc1Cl)c1ccccc1` [Ic-05], the efficacy in the experiment with Spodoptera frugiperda (100 g/ha) and with Phaedon cochleariae was 100% each time.

With “N-[1-(2-chloro-5-{1-[2,6-dichloro-4-(1,1,1,2,3,3,3-heptafluoropropan-2-yl)phenyl]-1H-pyrazol-4-yl}phenyl)ethyl]propanamide [Ia-47]”, the efficacy worked out at 83% in the experiment with Spodoptera frugiperda (100 g/ha) and 100% with Phaedon cochleariae.
